Results reported in publication PMC5642271 (American journal of veterinary research, 2016).
“Also recorded” adds a separate entry of the source. Where two headings read alike, the source gives them in different places.

Columns and labels:
[1] = tested on: canine osteosarcoma and malignant melanoma cell lines; details: immortalized canine cell lines; cited from earlier work
[2] = Pharmacokinetics of rapamycin in blood after a single oral dose; type: in vivo, dogs; details: experiment 1: 0.1 mg/kg PO once
[3] = tested on: dogs with osteosarcoma; details: cited from earlier work
[4] = tested on: mTOR pathway; details: IM 0.01 to 0.08 mg/kg, peripheral blood mononuclear cells and tumor biopsy specimens, each dose cohort; cited from earlier work
[5] = blood samples stored frozen at −80°C for 90 days and subsequently thawed; cited from earlier work
[6] = Pharmacokinetics of rapamycin in blood after oral dosing once daily for 5 days; type: in vivo, dogs
[7] = tested on: dogs with experimental renal allografts; details: cited from earlier work
[8] = tested on: healthy dogs; test: Monitoring of adverse effects in healthy dogs during the study; type: in vivo; details: 0.1 mg/kg PO once (experiment 1) and once daily for 5 days (experiment 2), vomiting between 3 and 5 hours after administration on day 4 of experiment 2
[9] = compartmental NME analysis, 5 dogs
[10] = experiment 2, day 5 of 0.1 mg/kg PO once daily, compartmental NME analysis
[11] = experiment 2: 0.1 mg/kg PO once daily for 5 days, compartmental NME analysis, value before the change on day 5, mean for 4 dogs
[12] = experiment 2: 0.1 mg/kg PO once daily for 5 days, whole blood, mean of n = 4, SD

Structure (SMILES): CO[C@H]1C[C@@H]2CC[C@@H](C)[C@@](O)(O2)C(=O)C(=O)N2CCCC[C@H]2C(=O)O[C@H]([C@H](C)C[C@@H]2CC[C@@H](O)[C@H](OC)C2)CC(=O)[C@H](C)/C=C(\C)[C@@H](O)[C@@H](OC)C(=O)[C@H](C)C[C@H](C)/C=C/C=C/C=C/1C [rapamycin, Rapamycin]
- viable tumor cells after exposure to rapamycin [1]: significant, dose-dependent decrease in viable tumor cells
- V1/f, volume of the central compartment after oral administration, mean estimate [2, 9]: 6.74 L/kg
- V2/f, volume of the peripheral compartment after oral administration, mean estimate [2, 9]: 18.1 L/kg
- ka, absorption rate constant, mean estimate [2, 9]: 0.358 h⁻¹
- Cmax (mean ± SD) ([2]; whole blood, mean of n = 5, SD): 8.39 ± 1.73 ng/mL
- Tmax (mean ± SD) ([2]; whole blood, mean of n = 5, SD): 3.3 ± 2.5 h
- concentration 48 hours after drug administration (mean ± SD) ([2]; whole blood, mean of n = 5, SD): 1.38 ± 0.45 ng/mL
- t1/2, terminal half-life (mean ± SD) ([2]; whole blood, noncompartmental, mean of n = 5, SD): 38.7 ± 12.7 h
- maximally tolerated dose ([3]; IM injection, doses ranging from 0.01 to 0.08 mg/kg): a maximally tolerated dose was not achieved
- injection site reaction ([3]; dog, in vivo): sterile abscesses at the injection site
- modulation of the mTOR pathway [4]: modulation of the mTOR pathway was detected
- rapamycin concentration in stored blood samples (stability) [5]: not substantially affected
- mean V1/f on the last day (day 5) of administration [6, 10]: 16.8 L/kg
- mean ka on the last day (day 5) of administration [6, 10]: 2.17 h⁻¹
- V2/f, volume of the peripheral compartment after oral administration, mean estimate ([6]; experiment 2: 0.1 mg/kg PO once daily for 5 days, compartmental NME analysis, mean for 4 dogs): 22.1 L/kg
- V1/f, volume of the central compartment after oral administration, mean estimate [6, 11]: 4.53 L/kg
- ka, absorption rate constant, mean estimate [6, 11]: 0.294 h⁻¹
- Tmax (mean ± SD) ([6]; experiment 2: 0.1 mg/kg PO once daily for 5 days, mean of n = 4, SD): 4.5 ± 1.0 h
- Cmax (mean ± SD) [6, 12]: 5.49 ± 1.99 ng/mL
- concentration 48 hours after drug administration (mean ± SD) [6, 12]: 1.70 ± 0.40 ng/mL
- Parameter characterizing the change in ka on the last day (day 5) of rapamycin administration in experiment 2 ([6]; βOCC2 of the NME model, θμD5 = θμD1−4e^βOCC2, P = 0.002): 2.0
- Parameter characterizing the change in V1/f on the last day (day 5) of rapamycin administration in experiment 2 ([6]; βOCC2 of the NME model, P = 0.002): 1.31
- prevention of renal allograft rejection ([7]; 0.05 mg/kg, IV): did not provide sufficient immunosuppression to prevent rejection of the renal allograft
- prevention of renal allograft rejection ([7]; 0.1 mg/kg, IM q 48 h or twice weekly, in combination with cyclosporine and antilymphocyte serum): not sufficient to prevent renal allograft rejection
- adverse effects observed [8]: None of the dogs had a substantial change in energy level, appetite, water intake, urination, or defecation; also recorded: One dog vomited once; also recorded: No other adverse effects were observed
